{
  "source": "paper PMC8145107",
  "about": "(Pharmaceutics, 2021)",
  "key": {"[1]": {"tested_on": "Salmonella typhimurium TA98", "settings": "TA98, without S-9 mix; J2 40, NA49 200, positive controls 1-2 μg/plate", "experimental": "To perform the Ames test of J2 and NA49, the number of revertant colonies was counted on each compound-treated plate at the maximum concentration at which the compound was soluble and nontoxic to the S. typhimurium tester strains (Supplementary Material S1). The ratio of the number of revertant colonies in the treated plate to colonies in the vehicle plate. […] For the hERG K^+ channel binding assay of J2 and NA49, the inhibitory activity against the hERG K^+ channel and its ligand was measured using a red fluorescent hERG channel ligand tracer. The final activity was assessed as a decrease in the degree of fluorescence polarization. […]\nThe test was conducted with maximum concentration at which the compound was\nsoluble and nontoxic to the S. typhimurium tester strains. #Factor = No. of revertant colonies\nof treated plate colonies of vehicle control plate. […]"}, "NCI-H460 cells [2]": {"tested_on": "NCI-H460 cells", "assay": "Cell death by PI staining / flow cytometry, NCI-H460", "assay_type": "cell-based, human", "settings": "NCI-H460; cisplatin 3 µM, Gef 30 µM, alone", "experimental": "(§1) Cells were plated in 6-well culture plates at a density of 1 × 10^5 cells/well. Compounds were applied to the cells immediately after seeding. When cells were harvested, cells were washed once with 1× phosphate-buffered saline (PBS), dissociated using Trypsin-EDTA, and centrifuged at 13,000 rpm for 3 min at 4 °C. Next, 1 mL of 1× PBS was added to wash the pellet again. Finally, 1 mL of 1× PBS and 1 μg/mL of propidium iodide (PI) were added to each polystyrene round-bottom tube. Flow cytometric analysis was performed using a FACS flow cytometer (BD Bioscience). To measure cell death, 10^4 cells were counted, and PI-stained cells were analyzed. FACS analysis in accordance with the manufacturer’s instruction. […]\n(§2) Table S1. CI values of NSCLC cell lines.\n(§3) Cell line Combination drug NA 10 µM NA 20 µM\n(§4) CI values were calculated from the data of percent inhibition of cell death by PI staining. Each CI\n(§5) value was analyzed by CompuSyn software. […]"}, "NCI-H460 cells [3]": {"tested_on": "NCI-H460 cells", "assay": "MTT viability assay, NCI-H460", "assay_type": "cell-based, human", "settings": "24 h", "experimental": "The human NSCLC cell lines of NCI-H460, A549, HCC827, PC9, NCI-H1650, and NCI-H1975 were obtained from the American Type Culture Collection (Rockville, MD, USA). Cells were cultured in RPMI 1640 medium containing 10% FBS, 2 mmol/L L-glutamine, and 100 units/mL of penicillin and streptomycin and maintained at 37 °C in a humidified incubator containing 5% CO2.\nCell viability against gefitinib-, cisplatin-, and NA49-induced toxicity was determined using an MTT (Amersham Pharmacia Biotech) assay in 96-well plates. […] Next, cells were incubated with 100 µL of 5 mg/mL 3-(4,5-dimethylthiazol-2-yl)-2,5-diphenyltetrazolium bromide (Sigma Aldrich, M5655) for 2 h. After the MTT mixture was removed, 100 µL of DMSO was added to each well, and absorbance at 540 nm was measured using an ELISA plate reader (TECAN, Twinfinite PRO)."}, "A549 cells": {"tested_on": "A549 cells", "assay": "Cell death by PI staining / flow cytometry, A549", "assay_type": "cell-based, human", "settings": "cisplatin 3 µM, Gef 30 µM, alone", "experimental": "as §1, §2, §3, §4, §5"}, "CYP2C9": {"molecular_target": "CYP2C9 (Homo sapiens, UniProt P11712)", "sequence (P11712 whole entry)": "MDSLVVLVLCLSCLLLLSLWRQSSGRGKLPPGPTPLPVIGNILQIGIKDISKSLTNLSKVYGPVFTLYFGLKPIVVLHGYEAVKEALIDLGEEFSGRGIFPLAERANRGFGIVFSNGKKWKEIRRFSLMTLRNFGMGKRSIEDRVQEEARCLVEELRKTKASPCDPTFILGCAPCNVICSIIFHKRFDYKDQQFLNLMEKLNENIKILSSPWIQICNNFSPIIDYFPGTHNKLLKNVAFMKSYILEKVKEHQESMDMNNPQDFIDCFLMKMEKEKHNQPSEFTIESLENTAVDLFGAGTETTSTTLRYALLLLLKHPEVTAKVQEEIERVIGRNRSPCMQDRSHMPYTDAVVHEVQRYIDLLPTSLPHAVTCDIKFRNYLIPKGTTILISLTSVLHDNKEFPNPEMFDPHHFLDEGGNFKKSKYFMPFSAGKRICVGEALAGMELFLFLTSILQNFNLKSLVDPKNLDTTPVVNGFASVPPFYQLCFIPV", "assay": "CYP450 enzyme inhibition, 2C9", "assay_type": "in vitro ADME", "settings": "10 μM", "procedure": "(§6) Permeability was evaluated with a parallel artificial membrane permeability (PAMPA) assay using an artificially generated lipid-infused membrane."}, "CYP1A2": {"molecular_target": "T1, CYP1A2 (Homo sapiens, UniProt P05177)", "T1 sequence (P05177 1-516)": "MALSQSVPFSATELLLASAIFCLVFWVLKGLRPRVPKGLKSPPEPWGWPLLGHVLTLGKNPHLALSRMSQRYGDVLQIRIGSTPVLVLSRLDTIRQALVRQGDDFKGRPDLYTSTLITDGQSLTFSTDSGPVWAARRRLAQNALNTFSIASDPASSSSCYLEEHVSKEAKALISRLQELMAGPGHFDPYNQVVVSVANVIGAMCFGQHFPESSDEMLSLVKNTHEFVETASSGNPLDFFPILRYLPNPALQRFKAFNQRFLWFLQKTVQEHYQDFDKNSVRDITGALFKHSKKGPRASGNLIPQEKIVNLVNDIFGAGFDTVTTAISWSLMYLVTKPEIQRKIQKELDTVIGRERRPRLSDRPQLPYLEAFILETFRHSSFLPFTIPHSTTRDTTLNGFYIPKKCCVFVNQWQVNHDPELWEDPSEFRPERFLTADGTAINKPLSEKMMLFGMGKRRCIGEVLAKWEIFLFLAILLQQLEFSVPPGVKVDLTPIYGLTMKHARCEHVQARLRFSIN", "assay": "in vitro"}, "CYP450 2C19": {"molecular_target": "CYP450 2C19 (Homo sapiens, UniProt P33261)", "sequence (P33261 whole entry)": "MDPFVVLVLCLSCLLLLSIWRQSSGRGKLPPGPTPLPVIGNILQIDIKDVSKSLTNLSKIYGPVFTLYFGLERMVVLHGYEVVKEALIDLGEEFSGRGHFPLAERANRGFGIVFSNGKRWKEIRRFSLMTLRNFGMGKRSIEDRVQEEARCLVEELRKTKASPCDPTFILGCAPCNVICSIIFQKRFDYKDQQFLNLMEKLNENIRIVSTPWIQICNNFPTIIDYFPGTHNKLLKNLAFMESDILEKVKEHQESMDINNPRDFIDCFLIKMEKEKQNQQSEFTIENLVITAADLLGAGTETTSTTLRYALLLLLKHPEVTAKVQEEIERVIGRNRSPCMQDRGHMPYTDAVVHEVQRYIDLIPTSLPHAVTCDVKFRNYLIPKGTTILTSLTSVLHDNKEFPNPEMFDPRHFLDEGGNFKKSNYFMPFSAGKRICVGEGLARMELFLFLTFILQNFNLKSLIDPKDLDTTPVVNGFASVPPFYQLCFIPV", "assay": "CYP450 enzyme inhibition, 2C19", "assay_type": "in vitro ADME", "settings": "10 μM", "procedure": "as §6"}, "CYP450 2D6": {"molecular_target": "CYP450 2D6 (Homo sapiens, UniProt P10635)", "sequence (P10635 whole entry)": "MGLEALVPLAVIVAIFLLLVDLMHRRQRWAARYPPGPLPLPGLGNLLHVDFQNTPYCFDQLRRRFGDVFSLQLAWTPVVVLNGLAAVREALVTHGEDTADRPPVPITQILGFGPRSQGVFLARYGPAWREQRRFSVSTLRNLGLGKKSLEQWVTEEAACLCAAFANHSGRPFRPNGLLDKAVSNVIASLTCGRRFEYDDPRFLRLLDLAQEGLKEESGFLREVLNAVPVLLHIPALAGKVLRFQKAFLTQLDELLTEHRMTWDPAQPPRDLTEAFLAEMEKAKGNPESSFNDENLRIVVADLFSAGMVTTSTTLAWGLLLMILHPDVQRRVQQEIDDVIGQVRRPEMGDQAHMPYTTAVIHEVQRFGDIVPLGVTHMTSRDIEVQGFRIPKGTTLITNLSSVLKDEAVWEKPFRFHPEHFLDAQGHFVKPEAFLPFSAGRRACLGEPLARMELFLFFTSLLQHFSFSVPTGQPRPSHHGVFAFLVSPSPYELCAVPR", "assay": "CYP450 enzyme inhibition, 2D6", "assay_type": "in vitro ADME", "settings": "10 μM"}, "CYP450 3A4": {"molecular_target": "CYP450 3A4 (Homo sapiens, UniProt P08684)", "sequence (P08684 whole entry)": "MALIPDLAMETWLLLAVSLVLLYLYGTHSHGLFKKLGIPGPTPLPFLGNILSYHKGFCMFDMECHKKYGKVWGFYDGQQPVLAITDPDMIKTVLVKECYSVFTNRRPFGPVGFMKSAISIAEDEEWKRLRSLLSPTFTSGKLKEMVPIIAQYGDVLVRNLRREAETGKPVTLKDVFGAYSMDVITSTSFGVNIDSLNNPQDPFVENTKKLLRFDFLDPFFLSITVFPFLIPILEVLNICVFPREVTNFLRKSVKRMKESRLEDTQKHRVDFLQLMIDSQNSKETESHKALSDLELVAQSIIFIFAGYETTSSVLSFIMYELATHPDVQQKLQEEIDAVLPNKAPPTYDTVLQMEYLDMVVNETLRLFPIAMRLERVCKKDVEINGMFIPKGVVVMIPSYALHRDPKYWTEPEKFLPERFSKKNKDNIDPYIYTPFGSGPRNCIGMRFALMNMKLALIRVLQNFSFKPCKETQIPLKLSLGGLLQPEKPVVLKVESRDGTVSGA", "assay": "CYP450 enzyme inhibition, 3A4", "settings": "10 μM"}},
  "data": [
    {"smiles": "O=[N+]([O-])c1ccc2c(c1)Cc1ccccc1-2", "note": "[2-nitrofluorene, reference compound]", "values": [
      {"measurement": "Factor (revertant colonies of treated plate/vehicle control plate)", "setting": "[1]", "value": 28.9},
      {"measurement": "Revertant colonies/plate (Mean ± S.D.)", "setting": "[1]", "value": "462 ± 24", "unit": "colonies/plate"}
    ]},
    {"smiles": "N.N.[Cl][Pt][Cl]", "note": "[Cisplatin, cisplatin, reference compound]", "values": [
      {"measurement": "Cell death", "setting": "NCI-H460 cells [2]", "value": "less than 30%"},
      {"measurement": "IC50", "setting": "NCI-H460 cells [3]", "value": 11.7, "unit": "µM"},
      {"measurement": "Cell death", "setting": "A549 cells", "value": "less than 30%"}
    ]},
    {"smiles": "CCCCNC(=O)NS(=O)(=O)c1ccc(CO)cc1", "note": "[OH-tolbutamide, reference compound]", "values": [
      {"measurement": "% inhibition of CYP450 2C9, positive control", "setting": "CYP2C9", "value": 91.7, "unit": "%"}
    ]},
    {"smiles": "COc1cc2ncnc(Nc3ccc(F)c(Cl)c3)c2cc1OCCCN1CCOCC1", "note": "[Gef, Gefitinib, reference compound]", "values": [
      {"measurement": "Cell death", "setting": "NCI-H460 cells [2]", "value": "less than 30%"},
      {"measurement": "Cell death", "setting": "A549 cells", "value": "less than 30%"}
    ]},
    {"smiles": "CC(=O)Nc1ccc(O)cc1", "note": "[acetaminophen]", "values": [
      {"measurement": "inhibition at 10 μM", "setting": "CYP1A2", "value": 92.4, "unit": "%"}
    ]},
    {"smiles": "COc1ccc2nc([S+]([O-])Cc3ncc(CO)c(OC)c3C)[nH]c2c1", "note": "(centres unmarked) [OH-omeprazole, reference compound]", "values": [
      {"measurement": "% inhibition of CYP450 2C19, positive control", "setting": "CYP450 2C19", "value": 93.2, "unit": "%"}
    ]},
    {"smiles": "CN1CC[C@@]23CCCC[C@@H]2[C@@H]1Cc1ccc(O)cc13", "note": "[dextrophan, reference compound]", "values": [
      {"measurement": "% inhibition of CYP450 2D6, positive control", "setting": "CYP450 2D6", "value": 94.0, "unit": "%"}
    ]},
    {"smiles": "OCc1ncc2n1-c1ccc(Cl)cc1C(c1ccccc1F)=NC2", "note": "[OH-midazolam, reference compound]", "values": [
      {"measurement": "% inhibition of CYP450 3A4, positive control", "setting": "CYP450 3A4", "value": 92.5, "unit": "%"}
    ]},
    {"smiles": "[N-]=[N+]=[N-].[Na+]", "note": "[sodium azide, reference compound]", "values": [
      {"measurement": "Factor (revertant colonies of treated plate/vehicle control plate)", "setting": "[1]", "value": 4.1},
      {"measurement": "Revertant colonies/plate (Mean ± S.D.)", "setting": "[1]", "value": "441 ± 16", "unit": "colonies/plate"}
    ]}
  ]
}
